PubChem BioAssay (NCI)
Where “and” joins values, the source holds several entries; their conditions need not be identical. Equal entries are not always repeated.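 Growth conditions: 96-well plates. Treatment: test compound, 48 hours, 5 concentrations. Analysis: linear interpolation between bracketing concentrations; unreached endpoints set to highest concentration. Here, GI50 denotes the concentration required for 50% inhibition of growth. TGI is the concentration that stops growth completely.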

Experiments:
Assay in all cases: inhibition of tumour cell growth, NCI panel, 48 h
A498 renal = test system: A498 renal
A549 NSCLC = test system: A549 NSCLC
ACHN renal = test system: ACHN renal
CAKI-1 renal = test system: CAKI-1 renal
COLO 205 colon = test system: COLO 205 colon
DU-145 prostate = test system: DU-145 prostate
EKVX NSCLC = test system: EKVX NSCLC
HCC-2998 colon = test system: HCC-2998 colon
HCT-15 colon = test system: HCT-15 colon
HL-60(TB) leukemia = test system: HL-60(TB) leukemia
HOP-62 NSCLC = test system: HOP-62 NSCLC
HS 578T breast = test system: HS 578T breast
HT29 colon = test system: HT29 colon
IGROV1 ovarian = test system: IGROV1 ovarian
K-562 leukemia = test system: K-562 leukemia
KM12 colon = test system: KM12 colon
LOX IMVI melanoma = test system: LOX IMVI melanoma
M14 melanoma = test system: M14 melanoma
MALME-3M melanoma = test system: MALME-3M melanoma
MCF7 breast = test system: MCF7 breast
MDA-MB-231 breast = test system: MDA-MB-231 breast
MDA-MB-435 = test system: MDA-MB-435
MDA-MB-468 breast = test system: MDA-MB-468 breast
MOLT-4 leukemia = test system: MOLT-4 leukemia
NCI-H226 lung = test system: NCI-H226 lung
NCI-H23 lung = test system: NCI-H23 lung
NCI-H460 lung = test system: NCI-H460 lung
NCI-H522 lung = test system: NCI-H522 lung
OVCAR-3 ovarian = test system: OVCAR-3 ovarian
OVCAR-4 ovarian = test system: OVCAR-4 ovarian
OVCAR-5 ovarian = test system: OVCAR-5 ovarian
OVCAR-8 ovarian = test system: OVCAR-8 ovarian
PC-3 prostate = test system: PC-3 prostate
RXF 393 renal = test system: RXF 393 renal
SF-268 CNS = test system: SF-268 CNS
SF-295 CNS = test system: SF-295 CNS
SF-539 CNS = test system: SF-539 CNS
SK-MEL-2 melanoma = test system: SK-MEL-2 melanoma
SK-MEL-28 melanoma = test system: SK-MEL-28 melanoma
SK-MEL-5 melanoma = test system: SK-MEL-5 melanoma
SK-OV-3 ovarian = test system: SK-OV-3 ovarian
SN12C renal = test system: SN12C renal
SNB-19 CNS = test system: SNB-19 CNS
SNB-75 CNS = test system: SNB-75 CNS
SR leukemia = test system: SR leukemia
SW-620 colon = test system: SW-620 colon
T-47D breast = test system: T-47D breast
TK-10 renal = test system: TK-10 renal
U251 CNS = test system: U251 CNS
UACC-257 melanoma = test system: UACC-257 melanoma
UACC-62 melanoma = test system: UACC-62 melanoma
UO-31 renal = test system: UO-31 renal
786-0 renal = test system: 786-0 renal
BT-549 breast = test system: BT-549 breast
CCRF-CEM leukemia = test system: CCRF-CEM leukemia
HCT-116 colon = test system: HCT-116 colon
HOP-92 NSCLC = test system: HOP-92 NSCLC
RPMI-8226 leukemia = test system: RPMI-8226 leukemia

## O=c1oc2ccc(-c3ccc(F)cc3F)cc2c(=O)n1-c1ccc(Cl)c(C(F)(F)F)c1
A498 renal
  GI50: 2.95 µM
  TGI: 8.94 µM
A549 NSCLC
  GI50: 3.53 µM
  TGI: 13.1 µM
ACHN renal
  GI50: 3.24 µM
  TGI: 12.3 µM
CAKI-1 renal
  GI50: 2.29 µM
  TGI: 8.98 µM
COLO 205 colon
  GI50: 16.5 µM
  TGI: 30.9 µM
DU-145 prostate
  GI50: 4.03 µM
  TGI: 14.3 µM
EKVX NSCLC
  GI50: 2.85 µM
  TGI: 12.2 µM
HCC-2998 colon
  GI50: 3.58 µM
  TGI: 12.8 µM
HCT-15 colon
  GI50: 3.19 µM
  TGI: 12.4 µM
HL-60(TB) leukemia
  GI50: 4.66 µM
  TGI: 47.2 µM
HOP-62 NSCLC
  GI50: 4.18 µM
  TGI: 14.6 µM
HS 578T breast
  GI50: 2.6 µM
  TGI: 8.26 µM
HT29 colon
  GI50: 16.7 µM
  TGI: 31.4 µM
IGROV1 ovarian
  GI50: 4.42 µM
  TGI: 15.8 µM
K-562 leukemia
  GI50: 3.18 µM
  TGI: > 100 µM
KM12 colon
  GI50: 3.86 µM
  TGI: 14.8 µM
LOX IMVI melanoma
  GI50: 3.9 µM
  TGI: 13.9 µM
M14 melanoma
  GI50: 0.0652 µM
  TGI: 3.29 µM
MALME-3M melanoma
  GI50: 2.62 µM
  TGI: 7.28 µM
MCF7 breast
  GI50: 2.7 µM
  TGI: 10.4 µM
MDA-MB-231 breast
  GI50: 2.35 µM
  TGI: 6.97 µM
MDA-MB-435
  GI50: 3.49 µM
  TGI: 12.6 µM
MDA-MB-468 breast
  GI50: 2.4 µM and 2.82 µM
  TGI: 6.08 µM and 7.81 µM
MOLT-4 leukemia
  GI50: 2.85 µM
  TGI: 15 µM
NCI-H226 lung
  GI50: 2.11 µM
  TGI: 12.5 µM
NCI-H23 lung
  GI50: 2.47 µM
  TGI: 8.59 µM
NCI-H460 lung
  GI50: 3.27 µM
  TGI: 11.2 µM
NCI-H522 lung
  GI50: 2.52 µM
  TGI: 7.84 µM
OVCAR-3 ovarian
  GI50: 3.22 µM
  TGI: 11 µM
OVCAR-4 ovarian
  GI50: 4.19 µM
  TGI: 16.7 µM
OVCAR-5 ovarian
  GI50: 5.98 µM
  TGI: 21.4 µM
OVCAR-8 ovarian
  GI50: 4.38 µM
  TGI: 17.9 µM
PC-3 prostate
  GI50: 2.04 µM
  TGI: 10.9 µM
RXF 393 renal
  GI50: 2.21 µM
  TGI: 6.51 µM
SF-268 CNS
  GI50: 3.39 µM
  TGI: 11.9 µM
SF-295 CNS
  GI50: 7.02 µM
  TGI: 20.5 µM
SF-539 CNS
  GI50: 3.9 µM
  TGI: 14.7 µM
SK-MEL-2 melanoma
  GI50: 2 µM
  TGI: 5.02 µM
SK-MEL-28 melanoma
  GI50: 4.3 µM
  TGI: 15.9 µM
SK-MEL-5 melanoma
  GI50: 1.96 µM
  TGI: 4.04 µM
SK-OV-3 ovarian
  GI50: 2.3 µM
  TGI: 6.3 µM
SN12C renal
  GI50: 2.89 µM
  TGI: 9.46 µM
SNB-19 CNS
  GI50: 3.28 µM
  TGI: 13.4 µM
SNB-75 CNS
  GI50: 2.23 µM
  TGI: 13.4 µM
SR leukemia
  GI50: 1.79 µM
  TGI: 5.54 µM
SW-620 colon
  GI50: 3.93 µM
  TGI: 14.9 µM
T-47D breast
  GI50: 2.42 µM
  TGI: 6.76 µM
TK-10 renal
  GI50: 3.98 µM
  TGI: 11.7 µM
U251 CNS
  GI50: 3.23 µM
  TGI: 11.1 µM
UACC-257 melanoma
  GI50: 3.41 µM
  TGI: 14.4 µM
UACC-62 melanoma
  GI50: 2.89 µM
  TGI: 10.4 µM
UO-31 renal
  GI50: 3.45 µM
  TGI: 14 µM

## CC1(C)CC[C@]2(C(=O)Nc3ccc(Br)cc3)CC[C@]3(C)C(=CCC4[C@@]5(C)C[C@@H](O)[C@H](O)[C@@](C)(CO)C5CC[C@]43C)C2C1 (stereo partly drawn)
786-0 renal
  GI50: 16.7 µM
  TGI: 31.5 µM
A498 renal
  GI50: 19 µM
  TGI: 34.6 µM
A549 NSCLC
  GI50: 30.5 µM
  TGI: > 100 µM
ACHN renal
  GI50: 14.6 µM
  TGI: 28.2 µM
BT-549 breast
  GI50: 16.4 µM
  TGI: 33.2 µM
CAKI-1 renal
  GI50: 12.6 µM
  TGI: 40.8 µM
CCRF-CEM leukemia
  GI50: 23.2 µM
  TGI: 75.9 µM
COLO 205 colon
  GI50: 15.2 µM
  TGI: 32.8 µM
DU-145 prostate
  GI50: 26.7 µM
  TGI: 81 µM
EKVX NSCLC
  GI50: 16.6 µM
  TGI: 41.6 µM
HCC-2998 colon
  GI50: 16.2 µM
  TGI: 31 µM
HCT-116 colon
  GI50: 13.5 µM
  TGI: 26.9 µM
HCT-15 colon
  GI50: 14.6 µM
  TGI: 29 µM
HL-60(TB) leukemia
  GI50: 18.2 µM
  TGI: 50.7 µM
HOP-62 NSCLC
  GI50: 15 µM
  TGI: 31.8 µM
HOP-92 NSCLC
  GI50: 14.5 µM
  TGI: 31.6 µM
HS 578T breast
  GI50: 20.1 µM
  TGI: 63.5 µM
HT29 colon
  GI50: 12.9 µM
  TGI: 26.7 µM
IGROV1 ovarian
  GI50: 17.1 µM
  TGI: 37.7 µM
K-562 leukemia
  GI50: 23.1 µM
  TGI: > 100 µM
KM12 colon
  GI50: 18.1 µM
  TGI: 38.1 µM
LOX IMVI melanoma
  GI50: 17.8 µM
  TGI: 33 µM
M14 melanoma
  GI50: 17.4 µM
  TGI: 40.8 µM
MALME-3M melanoma
  GI50: 16.1 µM
  TGI: 30.4 µM
MCF7 breast
  GI50: 14.9 µM
  TGI: 34.9 µM
MDA-MB-231 breast
  GI50: 15.3 µM
  TGI: 30 µM
MDA-MB-435
  GI50: 15.9 µM
  TGI: 31.4 µM
MDA-MB-468 breast
  GI50: 15 µM
  TGI: 29.4 µM
MOLT-4 leukemia
  GI50: 13.2 µM
  TGI: 50 µM
NCI-H226 lung
  GI50: 16.8 µM
  TGI: 34.2 µM
NCI-H23 lung
  GI50: 17.1 µM
  TGI: 33.6 µM
NCI-H460 lung
  GI50: 17.5 µM
  TGI: 38.3 µM
NCI-H522 lung
  GI50: 17.1 µM
  TGI: 34.6 µM
OVCAR-3 ovarian
  GI50: 17.1 µM
  TGI: 34 µM
OVCAR-4 ovarian
  GI50: 15.1 µM
  TGI: 35.8 µM
OVCAR-5 ovarian
  GI50: 13.2 µM
  TGI: 27.2 µM
OVCAR-8 ovarian
  GI50: 24 µM
  TGI: 73.7 µM
PC-3 prostate
  GI50: 14.5 µM
  TGI: 40.8 µM
RPMI-8226 leukemia
  GI50: 19.5 µM
  TGI: 72.3 µM
RXF 393 renal
  GI50: 12.6 µM
  TGI: 25.6 µM
SF-268 CNS
  GI50: 20.9 µM
  TGI: 71.9 µM
SF-295 CNS
  GI50: 15.8 µM
  TGI: 30.6 µM
SF-539 CNS
  GI50: 15.9 µM
  TGI: 30 µM
SK-MEL-28 melanoma
  GI50: 16.1 µM
  TGI: 35.8 µM
SK-MEL-5 melanoma
  GI50: 15.7 µM
  TGI: 29.1 µM
SK-OV-3 ovarian
  GI50: 16.5 µM
  TGI: 38.6 µM
SN12C renal
  GI50: 16.6 µM
  TGI: 31.8 µM
SNB-19 CNS
  GI50: 25.8 µM
  TGI: > 100 µM
SNB-75 CNS
  GI50: 14.5 µM
  TGI: 60.7 µM
SR leukemia
  GI50: 19.1 µM
  TGI: > 100 µM
SW-620 colon
  GI50: 25.7 µM
  TGI: > 100 µM
T-47D breast
  GI50: 13.4 µM
  TGI: 30.4 µM
TK-10 renal
  GI50: 19.8 µM
  TGI: 49.9 µM
U251 CNS
  GI50: 16.6 µM
  TGI: 33.5 µM
UACC-257 melanoma
  GI50: 20.2 µM
  TGI: 56.1 µM
UACC-62 melanoma
  GI50: 12 µM
  TGI: 25.2 µM
UO-31 renal
  GI50: 13.5 µM
  TGI: 33.4 µM
